# Test results taken from patent US9845460B2, “Treatment of pluripotent cells” (Janssen Biotech, Inc., priority 2008, dated 2017).
# “And” between values parts separate entries of the source, which are not always exact repeats. Equal values may be shown once.
# B1: AA only: control wells with base medium, FCS and activin A alone (protein, UniProt P08476 311-426, looked up)
# Inhibin beta A chain: GLECDGKVNICCKKQFFVSFKDIGWNDWIIAPSGYHANYCEGECPSHIAGTSGSSLSFHSTVINHYRMRGHSPFANLKSCCVPTKLRPMSMLYYDDGQNIIKKDIQNMIVEECGCS
# Experiments:
# [1] = system: cells expressing pluripotency markers; test: Viability (MTS, OD 490 nm) of cells expressing pluripotency markers treated with GSK-3B inhibitors; type: cell-based, human; settings: for Raw data (duplicate): optical density at 490 nm (MTS), single wells
# Protocol: Derivation and maintenance of cells expressing pluripotency makers was conducted as has been described in Example 2. Cells were grown in DMEM:F12 supplemented with 2% FCS (Invitrogen), 100 ng/ml Activin A, 20 ng/ml Wnt-3a, and 50 ng/ml IGF (R&D Biosystems). Cells were seeded at a density of 10,000 cells/cm^2 on Falcon polystyrene flasks and grown in monolayer culture at 37° C., 5% CO2, low oxygen. After reaching 60-70% confluence, cells were passed by washing the monolayer with PBS and incubating with TrypLE (Invitrogen) for 3-5 minutes to allow detachment and single cell dispersal.
# Screening was conducted using test compounds from a proprietary library of small molecules selected for their ability to inhibit GSK-3B enzyme activity. Compounds from this library were made available as 1 mM stocks, in a 96-well plate format in 50 mM HEPES, 30% DMSO. For assay, cells expressing pluripotency markers were washed, counted, and plated in normal culture medium at a seeding density of 20,000 cells per well in 96-well clear-bottom, dark-well plates (Costar). This seeding density was previously determined to yield optimal monolayer formation in overnight culture. On the following day, culture medium was removed, cell monolayers were rinsed three times with PBS, and test compounds were added to the wells in 80 μl aliquots, each diluted into assay medium at a final assay concentration of 10 μM. On day 2 of the assay, medium was removed from each well and replaced with a fresh aliquot of test compounds diluted into assay medium. Assay medium on days 1 and 2 of culture consisted of DMEM:F12 supplemented with 0.5% FCS and 100 ng/ml Activin A. On days 3 and 4 of culture, medium was removed from each well and replaced with DMEM:F12 supplemented with 2% FCS and 100 ng/ml Activin A (no test compound). On day 4 of assay, 15 μl of MTS (Promega) was added to each well and plates were incubated at 37° C. for 1.5 to 4 hours prior to reading optical density at 490 nm on a SpectraMax (Molecular Devices) instrument. Statistical measures consisting of mean, standard deviation, and coefficient of variation were calculated for each duplicate set. Toxicity was calculated for each test well relative to a positive control (wells treated with Activin A and Wnt3a on days 1 and 2 of culture).
# A larger proportion of the compounds have minimal or no measurable toxicity in this cell-based assay.
# A small panel of select compounds was repeat tested over a narrow dose titration range, again using cells expressing pluripotency markers in a similar assay as described above.
# [2] = system: human embryonic stem cells (H9 line); test: High content screening assay: total cell number (proliferative response); type: cell-based
# Protocol: (§1) Maintenance of human embryonic stem cells (H9 line) was conducted as described in Example 1. Colonies of cells were maintained in an undifferentiated, pluripotent state with passage on average every four days. Passage was performed by exposing cell cultures to a solution of collagenase (1 mg/ml; Sigma-Aldrich) for 10 to 30 minutes at 37° C. followed by gentle scraping with a pipette tip to recover cell clusters. Clusters were allowed to sediment by gravity, followed by washing to remove residual collagenase. Cell clusters were split at a 1:3 ratio for routine maintenance culture or a 1:1 ratio for immediate assay. The human embryonic stem cell lines used were maintained at passage numbers less than passage 50 and routinely evaluated for normal karyotypic phenotype and absence of mycoplasma contamination.
# Cell clusters used in the assay were evenly resuspended in normal culture medium and plated onto MATRIGEL-coated 96-well Packard VIEWPLATES (PerkinElmer) in volumes of 100 μl/well. MEF conditioned medium supplemented with 8 ng/ml bFGF was used for initial plating and recovery. Daily feeding was conducted by aspirating spent culture medium from each well and replacing with an equal volume of fresh medium. Plates were maintained at 37° C., 5% CO2 in a humidified box throughout the duration of assay.
# Screening was conducted using test compounds from a proprietary library of small molecules selected for their ability to inhibit GSK-3B enzyme activity. Compounds from this library were made available as 1 mM stocks, in a 96-well plate format in 50 mM HEPES, 30% DMSO. Screening compounds were tested in triplicate or duplicate sets. Primary screening assays were initiated by aspirating culture medium from each well followed by three washes in PBS to remove residual growth factors and serum. Test volumes of 80 to 100 μl per well were added back containing DMEM:F12 base medium (Invitrogen) supplemented with 0.5% FCS (HyClone) and 100 ng/ml activin A (R&D Biosystems) plus […] test compound. Positive control wells contained the same base medium, substituting 10-20 ng/ml Wnt3a (R&D Biosystems) for the test compound. Negative control wells contained base medium with 0.5% FCS and activin A alone (AA only) or alternatively, 0.5% FCS without activin A or Wnt3a (no treatment). Wells were aspirated and fed again with identical solutions on day 2 of assay. On days 3 and 4, all assay wells were aspirated and converted to DMEM:F12 supplemented with 2% FCS and 100 ng/ml activin A (without test compound or Wnt3a); parallel negative control wells were maintained in DMEM:F12 base medium with 2% FCS and activin A (AA only) or alternatively, 2% FCS without activin A (no treatment). […]
# [3] = system: Sox17; test: High content screening assay: Sox17 protein expression (total intensity); type: cell-based, human
# Protocol: as §1
# (§2) Cell clusters used in the assay were evenly resuspended in normal culture medium and plated onto MATRIGEL-coated 96-well Packard VIEWPLATES (PerkinElmer) in volumes of 100 μl/well. MEF conditioned medium supplemented with 8 ng/ml bFGF was used for initial plating and recovery. Daily feeding was conducted by aspirating spent culture medium from each well and replacing with an equal volume of fresh medium. Plates were maintained at 37° C., 5% CO2 in a humidified box throughout the duration of assay. […]
# [4] = system: HNF-3beta; test: High content screening assay: HNF-3beta protein expression (total intensity); type: cell-based, human
# Protocol: as §1, §2
# [5] = system: human embryonic stem cells (H9 or H1 lines); test: Plate reader assay (MTS, OD490): proliferation of human embryonic stem cells; type: cell-based
# Protocol: Maintenance of human embryonic stem cells (H9 or H1 lines) was conducted as described in Example 1. Colonies of cells were maintained in an undifferentiated, pluripotent state with passage on average every four days. Passage was performed by exposing cell cultures to a solution of collagenase (1 mg/ml; Sigma-Aldrich) for 10 to 30 minutes at 37° C. followed by gentle scraping with a pipette tip to recover cell clusters. Clusters were allowed to sediment and washed to remove residual collagenase. Cell clusters were split at a ratio of 1:3 monolayer area for routine culture or a 1:1 ratio for immediate assay. The human embryonis stem cell lines used for these examples were maintained at passage numbers less than 50 and routinely evaluated for normal karyotypic phenotype as well as absence of mycoplasm contamination.
# Cell clusters used in assay were evenly resuspended in normal culture medium and plated into MATRIGEL-coated 96-well Packard VIEWPLATES (PerkinElmer) in volumes of 100 μl/well. MEF conditioned medium supplemented with 8 ng/ml bFGF) was used for initial plating and recovery. Daily feeding was conducted by aspirating spent culture medium from each well and replacing with an equal volume of fresh medium. Plates were maintained at 37° C. in a humidified box, 5% CO2 throughout the duration of assay.
# Primary screening assays were initiated by aspirating culture medium from each well followed by three washes in PBS to remove residual growth factors and serum. Test volumes of 80-100 μl per well were added back containing DMEM:F12 base medium (Invitrogen) supplemented with 0.5% FCS (HyClone) and 100 ng/ml activin A (R&D Biosystems) and 10 μM test compound. […]
# On day 4 of assay, […] of MTS (Promega) was added to each well and plates were incubated at 37° C. for 1.5 to 4 hours. Densitometric readings at OD490 were determined using a Molecular Devices spectrophotometer plate reader. Average readings for replicate sets were calculated along with standard deviation and coefficient of variation. […]
# [6] = total intensity normalized to Wnt3a/Activin A positive control
molecule,measurement,setting,value
OCCC#Cc1nc(-c2ccc(F)cc2)c(-c2ccncc2)n1CCCc1ccccc1 [RWJ67657],Average,"[1]; MTS viability readout, average of duplicate raw data",0.644
same,"Raw data (duplicate), first value","[1]; MTS viability readout, first of duplicate wells",0.629
same,"Raw data (duplicate), second value","[1]; MTS viability readout, second of duplicate wells",0.659
same,Average,"[1]; cmpd conc 2.5 uM, mean optical density at 490 nm (MTS) of duplicate",0.7971
same,Raw data (duplicate),[1]; cmpd conc 2.5 uM,0.8041 and 0.7900
same,% Control,"[1]; cmpd conc 2.5 uM, viability relative to AA + Wnt3a positive control, MTS day 4",93.2%
same,Average,"[1]; cmpd conc 5 uM, mean optical density at 490 nm (MTS) of duplicate",0.8183
same,Raw data (duplicate),[1]; cmpd conc 5 uM,0.8047 and 0.8319
same,% Control,"[1]; cmpd conc 5 uM, viability relative to AA + Wnt3a positive control, MTS day 4",96.2%
same,Average,"[1]; cmpd conc 10 uM, mean optical density at 490 nm (MTS) of duplicate",0.6052
same,Raw data (duplicate),[1]; cmpd conc 10 uM,0.6195 and 0.5908
same,% Control,"[1]; cmpd conc 10 uM, viability relative to AA + Wnt3a positive control, MTS day 4",66.5%
same,% Control,[1]; viability as % of control,77.7%
same,Proliferative Response Total cells (HNF-3b Expression set),[2]; total cell number in wells stained for HNF-3b,6058
same,Proliferative Response Total cells (SOX-17 Expression set),[2]; total cell number in wells stained for SOX-17,6376
same,Proliferative Response Fold over Wnt 3a/AA control (HNF-3b Expression set),"[2]; total cells normalized to Wnt3a/Activin A positive control, wells stained for HNF-3b",0.3852 Fold over Wnt 3a/AA control
same,Proliferative Response Fold over Wnt 3a/AA control (SOX-17 Expression set),"[2]; total cells normalized to Wnt3a/Activin A positive control, wells stained for SOX-17",0.4162 Fold over Wnt 3a/AA control
same,SOX-17 Expression Total Intensity,[3]; total intensity,324450000
same,SOX-17 Expression Fold over Wnt 3a/AA control,[3]; [6],0.3336 Fold over Wnt 3a/AA control
same,HNF-3b Expression Total Intensity,[4]; total intensity,269025000
same,HNF-3b Expression Fold over Wnt 3a/AA control,[4]; [6],0.2428 Fold over Wnt 3a/AA control
same,% Control Value,"[5]; 10 μM test compound, MTS OD490 on day 4, relative to Activin A/Wnt3a positive control",84.7%
same,Average (of Raw Data),"[5]; mean of replicate raw plate-reader readings (MTS, OD490), proliferation of human embryonic stem cells",1.2242
same,% Control,[5]; relative to the AA/Wnt3a/DMSO positive control of the same plate (= 100.0),84.7%
B1,Average,"[1]; control wells without test compound, mean optical density at 490 nm (MTS)",0.8889 and 0.7861
same,Raw data (duplicate),[1]; control wells without test compound,0.8732 and 0.9046 and 0.7674 and 0.8047
same,% Control,"[1]; control wells without test compound, relative to AA + Wnt3a",106.0% and 98.3%
